Reference: US8338335B2, “Synergistic herbicidal composition containing fluroxypyr and penoxsulam, halosulfuron-methyl, imazamox or imazethapyr” (Dow Agrosciences, LLC, priority 2009, dated 2012)
Values joined by “and” are separate entries in the source; they are usually repeats but may differ in a detail not shown here. Equal values may be shown once.

Tests used:
[1] = tested on: Leptochloa chinensis (LEFCH); Chinese sprangletop; test: Postemergence herbicidal activity of mixtures in the greenhouse, LEFCH; assay type: in vivo; details: 21 DAA
Description: (§1) Seeds of the desired test plant species were planted in 80% mineral soil/20% grit planting mixture, which typically has a pH of 7.2 and an organic matter content of about 2.9 percent, in plastic pots with a surface area of 128 square centimeters (cm^2). The growing medium was steam sterilized. The plants were grown for 7-19 days in a greenhouse with an approximate 14-hour (h) photoperiod which was maintained at about 29° C. during the day and 26° C. during the night. Nutrients and water were added on a regular basis and supplemental lighting was provided with overhead metal halide 1000-Watt lamps as necessary. The plants were treated with postemergence foliar applications when they reached the third to fourth true leaf stage. All treatments were applied using a randomized complete block trial design, with 4 replications per treatment.
(§2) Treatments consisted of the compounds as listed in Tables 1, 3, 5 and 6, each compound applied alone and in combination. Formulated amounts of penoxsulam, halosulfuron-methyl, imazamox and fluoroxypyr-meptyl ester, were placed in 60 milliliter (mL) glass vials and dissolved in a volume of 60 mL of a water solution containing Agri-dex crop oil concentrate in a 1% volume per volume (v/v) ratio. Compound requirements are based upon a 12 mL application volume at a rate of 187 liters per hectare (L/ha). Spray solutions of the mixtures were prepared by adding the stock solutions to the appropriate amount of dilution solution to form 12 mL spray solution with active ingredients in single and two way combinations. Formulated compounds were applied to the plant material with an overhead Mandel track sprayer equipped with 8002E nozzles calibrated to deliver 187 L/ha at a spray height of 18 inches (43 centimeters (cm)) above average plant canopy.
(§3) The treated plants and control plants were placed in a greenhouse as described above and watered by sub-irrigation to prevent wash-off of the test compounds. […] Visual weed control was scored on a scale of 0 to 100 percent where 0 corresponds to no injury and 100 corresponds to complete kill. […]

[2] = tested on: Cyperus esculentus (CYPES); yellow nutsedge; test: Postemergence herbicidal activity of mixtures in the greenhouse, CYPES; assay type: in vivo; details: 21 DAA
Description: as §1, §2
(§4) The treated plants and control plants were placed in a greenhouse as described above and watered by sub-irrigation to prevent wash-off of the test compounds. Treatments were rated at 7 to 21 days after application (DAA) as compared to the untreated control plants. Visual weed control was scored on a scale of 0 to 100 percent where 0 corresponds to no injury and 100 corresponds to complete kill.
(§5) Colby's equation was used to determine the herbicidal effects expected from the mixtures (Colby, S. R. Calculation of the synergistic and antagonistic response of herbicide combinations. Weeds 1967, 15, 20-22).
(§6) The following equation was used to calculate the expected activity of mixtures containing two active ingredients, A and B: Expected=A+B−(A×B/100)

[3] = tested on: Echinochloa crus-galli (ECHCG); barnyardgrass; test: Postemergence herbicidal activity of mixtures in the greenhouse, ECHCG; assay type: in vivo
Description: as §1, §2, §4, §5, §6

[4] = tested on: Caperonia palustris, CNPPA; Texasweed; test: Postemergence herbicidal activity of mixtures in the field, CNPPA; assay type: in vivo
Description: (§7) Field trials were conducted in rice and turf using standard herbicide small plot research methodology. Plots varied from 3×3 meter (m) to 3×10 m (width×length) with 4 replicates per treatment. The rice crop was grown using normal cultural practices for fertilization, seeding, watering, flooding and maintenance to ensure good growth of the crop and the weeds. The turf crop was a permanent established crop of centipedegrass that was grown and maintained under normal cultural practices for fertilization, watering, mowing and disease maintenance to ensure good growth of the crop and the weeds.
(§8) All treatments in the field trials were applied using a carbon dioxide (CO2) backpack sprayer calibrated to apply 187 L/ha spray volume. Commercially available products of penoxsulam and fluoroxypyr-meptyl were mixed in water at appropriately formulated product rates to achieve the desired rates based on a unit area of application (hectare) to achieve the desired rates as shown. Treatments were rated at 7 to 33 days after application as compared to the untreated control plants. Visual weed control was scored on a scale of 0 to 100 percent where 0 corresponds to no injury and 100 corresponds to complete kill.
as §5, §6

[5] = tested on: Sesbania exaltata, SEBEX; Hemp sesbania; test: Postemergence herbicidal activity of mixtures in the field, SEBEX; assay type: in vivo
Description: as §7
as §8, with “kill. […]” for “kill.”

[6] = tested on: Plantago lanceolata, PLALA; narrow-leaved plantain; test: Postemergence herbicidal activity of mixtures in the field, PLALA; assay type: in vivo
Description: as §7
as §8, with “kill. […]” for “kill.”

[7] = tested on: Scirpus juncoides (SCPJU); Japanese bulrush; test: Postemergence herbicidal activity of mixtures in the greenhouse, SCPJU; assay type: in vivo
Description: as §1
Treatments consisted of the compounds as listed in Tables 1, 3, 5 and 6, each compound applied alone and in combination. […]
as §3

Centipedegrass (ERLOP) = test: Crop injury (safening) in the field, centipedegrass; assay type: in vivo, Eremochloa ophiuroides
Description: as §7
as §8, with “kill. […]” for “kill.”

[8] = tested on: Panicum dichotomiflorum, PANDI; fall panicum; test: Postemergence herbicidal activity of mixtures in the field, PANDI; assay type: in vivo
Description: as §7
as §8, with “kill. […]” for “kill.”

[9] = tested on: Brachiaria platyphylla (BRAPP); broadleaf signalgrass; test: Postemergence herbicidal activity of mixtures in the greenhouse, BRAPP; assay type: in vivo; details: 21 DAA
Description: as §1, §2, §4, §5, §6

Sunflower (HELAN) = test: Crop injury (safening) in the field, sunflower; assay type: in vivo, Helianthus annuus; details: Fluroxypyr-meptyl 100 g ae/ha alone
[10] = tested on: Leptochloa spp, LEFSS; sprangletop; test: Postemergence herbicidal activity of mixtures in the field, LEFSS; assay type: in vivo
Description: as §7
All treatments in the field trials were applied using a carbon dioxide (CO2) backpack sprayer calibrated to apply 187 L/ha spray volume. […] Treatments were rated at 7 to 33 days after application as compared to the untreated control plants. Visual weed control was scored on a scale of 0 to 100 percent where 0 corresponds to no injury and 100 corresponds to complete kill.
as §5, §6

[11] = Halosulfuron-methyl 4.4 g ai/ha alone
[12] = Halosulfuron-methyl 18 g ai/ha alone
[13] = Fluroxypyr-meptyl 97 g ae/ha alone
[14] = Fluroxypyr-meptyl 290 g ae/ha alone
[15] = Fluroxypyr-meptyl 200 g ae/ha alone

COC(=O)c1c(Cl)nn(C)c1S(=O)(=O)NC(=O)Nc1nc(OC)cc(OC)n1 [Halosulfuron-methyl, methyl 3-chloro-5-[[[[(4,6-dimethoxy-2-pyrimidinyl)amino]carbonyl]amino]sulfonyl]-1-methyl-1H-pyrazole-4-carboxylate]
% Control LEFCH Ob [1, 11]: 2% | % Control LEFCH Ob [1, 12]: 8% | % Control CYPES Ob [2, 11]: 68% | % Control CYPES Ob ([2]; Halosulfuron-methyl 8.8 g ai/ha alone): 73% | % Control CYPES Ob [2, 12]: 78% | % Control ECHCG Ob ([3]; Halosulfuron-methyl 8.8 g ai/ha alone, 21 DAA): 3% | % Control ECHCG Ob ([3]; Halosulfuron-methyl 18 g ai/ha alone, 21 DAA): 6%

COc1cnc(OC)n2nc(NS(=O)(=O)c3c(OCC(F)F)cccc3C(F)(F)F)nc12 [Penoxsulam, 2-(2,2-difluoroethoxy)-N-(5,8-dimethoxy-[1,2,4]triazolo[1,5-c]pyrimidin-2-yl)-6-(trifluoromethyl)benzenesulfonamide]
% Control CNPPA Ob ([4]; Penoxsulam 35 g ai/ha alone): 67% | % Control SEBEX Ob ([5]; Penoxsulam 22 g ai/ha alone): 76% | % Control PLALA Ob ([6]; Penoxsulam 15 g ai/ha alone): 13% | % Control SCPJU Ob ([7]; Penoxsulam 10 g ai/ha alone): 2% | % Injury ERLOP Ob (Centipedegrass (ERLOP); in vivo): 15% | % Control ECHCG Ob ([3]; Penoxsulam 15 g ai/ha alone): 84% and 78% and 62%

CCCCCCC(C)OC(=O)COc1nc(F)c(Cl)c(N)c1Cl (centres unmarked) [Fluroxypyr-meptyl, fluoroxypyr-meptyl ester]
% Control CNPPA Ob [4, 13]: 45% | % Control CNPPA Ob [4, 14]: 60% | % Control PANDI Ob [8, 14]: 0% | % Control BRAPP Ob ([9]; Fluroxypyr-meptyl 50 g ae/ha alone): 10% | % Control BRAPP Ob ([9]; Fluroxypyr-meptyl 100 g ae/ha alone): 23% | % Control BRAPP Ob [9, 15]: 20% | % Control SEBEX Ob [5, 13]: 57% | % Control LEFCH Ob [1, 15]: 15% | % Control PLALA Ob ([6]; Fluroxypyr-meptyl 140 g ae/ha alone): 0% | % Control SCPJU Ob ([7]; Fluroxypyr-meptyl 70 g ae/ha alone): 60% | % Injury ERLOP Ob (Centipedegrass (ERLOP); Fluroxypyr-meptyl 210 g ae/ha alone, field): 6% | % Control CYPES Ob ([2]; Fluroxypyr-meptyl 50 g ae/ha alone, Table 5): 1% | % Control CYPES Ob ([2]; Fluroxypyr-meptyl 100 g ae/ha alone, Table 5): 3% | % Control CYPES Ob ([2]; Fluroxypyr-meptyl 100 g ae/ha alone, Table 6): 10% | % Control CYPES Ob ([2]; Fluroxypyr-meptyl 200 g ae/ha alone, Table 5): 8% | % Control CYPES Ob ([2]; Fluroxypyr-meptyl 200 g ae/ha alone, Table 6): 9% | % Injury HELAN Ob (Sunflower (HELAN)): 31% and 34% | % Control ECHCG Ob ([3]; Fluroxypyr-meptyl 50 g ae/ha alone, 21 DAA, Table 5): 6% | % Control ECHCG Ob ([3]; Fluroxypyr-meptyl 50 g ae/ha alone, 21 DAA, Table 6): 1.3% | % Control ECHCG Ob ([3]; Fluroxypyr-meptyl 100 g ae/ha alone, 21 DAA, Table 5): 2% | % Control ECHCG Ob ([3]; Fluroxypyr-meptyl 100 g ae/ha alone, 21 DAA, Table 6): 4% | % Control ECHCG Ob ([3]; Fluroxypyr-meptyl 200 g ae/ha alone, 21 DAA, Table 5): 11% | % Control ECHCG Ob ([3]; Fluroxypyr-meptyl 200 g ae/ha alone, 21 DAA, Table 6): 6% | % Control ECHCG Ob ([3]; Fluroxypyr-meptyl 340 g ae/ha alone, Table 1): 0% | % Control LEFSS Ob [10, 14]: 0%

CCc1cnc(C2=NC(C)(C(C)C)C(=O)N2)c(C(=O)O)c1 (centres unmarked) [Imazethapyr, 2-[4,5-dihydro-4-methyl-4-(1-methylethyl)-5-oxo-1H-imidazol-2-yl]-5-ethyl-3-pyridinecarboxylic acid]
% Control PANDI Ob ([8]; Imazethapyr 70 g ai/ha alone): 40% | % Control LEFSS Ob ([10]; Imazethapyr 70 g ai/ha alone): 28%

COCc1cnc(C2=NC(C)(C(C)C)C(=O)N2)c(C(=O)O)c1 (centres unmarked) [Imazamox, 2-[4,5-dihydro-4-methyl-4-(1-methylethyl)-5-oxo-1H-imidazol-2-yl]-5-(methoxymethyl)-3-pyridinecarboxylic acid]
% Control BRAPP Ob ([9]; Imazamox 4.4 g ai/ha alone): 3% | % Control BRAPP Ob ([9]; Imazamox 8.8 g ai/ha alone): 46% | % Control CYPES Ob ([2]; Imazamox 8.8 g ai/ha alone): 8% | % Control CYPES Ob ([2]; Imazamox 18 g ai/ha alone): 42% | % Control ECHCG Ob ([3]; Imazamox 4.4 g ai/ha alone, 21 DAA): 1.3% | % Control ECHCG Ob ([3]; Imazamox 8.8 g ai/ha alone, 21 DAA): 29% | % Control ECHCG Ob ([3]; Imazamox 18 g ai/ha alone, 21 DAA): 85%
